Test results as given in US11951094B2, “TLR2 modulator compounds, pharmaceutical compositions and uses thereof” (Axial Therapeutics, Inc., priority 2020, dated 2024).
Counter-ions that a name gives are not always drawn.

What follows are molecules tested against TLR2 (Homo sapiens, UniProt O60603) (assay: TLR2 agonist screening assay, HEK-Blue TLR2 reporter cell line (NF-kB-driven SEAP, absorbance at 600 nm)). Details: HEK-Blue TLR2 reporter cells, agonist mode; average of all runs (Table 3).
Type: cell-based
Parameters: host or cells: HEK-293 (HEK-Blue TLR2 reporter cell line)
Summary of the method: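 EC50 values come from dilution series of agonist on TLR2-transfected HEK-293 reporter cells carrying an NF-kB-SEAP construct. Cells sat overnight with compound in substrate-containing Detection medium at 1% DMSO, and secreted phosphatase activity was quantified as absorbance at 600 nm.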

Chain of TLR2 (O60603 21-784): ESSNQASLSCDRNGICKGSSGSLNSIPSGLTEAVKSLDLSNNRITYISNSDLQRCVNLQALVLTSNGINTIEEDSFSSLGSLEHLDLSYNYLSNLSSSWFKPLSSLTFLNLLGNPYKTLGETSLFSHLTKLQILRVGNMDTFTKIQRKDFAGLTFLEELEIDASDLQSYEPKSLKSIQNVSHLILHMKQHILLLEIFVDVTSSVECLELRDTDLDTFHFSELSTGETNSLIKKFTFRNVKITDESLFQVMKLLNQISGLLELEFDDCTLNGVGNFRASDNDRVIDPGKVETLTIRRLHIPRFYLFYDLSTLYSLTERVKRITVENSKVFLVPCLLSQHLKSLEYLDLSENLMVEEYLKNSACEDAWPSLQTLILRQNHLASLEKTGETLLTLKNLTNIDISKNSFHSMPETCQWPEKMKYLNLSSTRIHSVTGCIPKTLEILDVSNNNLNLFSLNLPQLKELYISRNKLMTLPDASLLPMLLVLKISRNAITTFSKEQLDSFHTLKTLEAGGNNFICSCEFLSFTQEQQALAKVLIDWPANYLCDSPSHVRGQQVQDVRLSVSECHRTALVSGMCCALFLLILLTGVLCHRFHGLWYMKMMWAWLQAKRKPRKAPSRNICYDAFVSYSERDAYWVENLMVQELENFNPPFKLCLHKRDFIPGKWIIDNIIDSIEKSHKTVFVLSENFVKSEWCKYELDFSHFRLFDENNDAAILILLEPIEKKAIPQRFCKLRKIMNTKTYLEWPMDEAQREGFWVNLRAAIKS

Compared with `CCCCCCCC(=O)N1CCN(C(=O)c2ccc(C(=O)N3C[C@@H](C(=O)N[C@H]4C[C@@H]4c4ccccc4)[C@H](C(=O)N[C@H]4C[C@@H]4c4ccccc4)C3)cc2)C[C@H]1C(=O)NCCCCCC` [Compound 030], `CCCCCCCCC(=O)N1CCN(C(=O)c2ccc(C(=O)N3C[C@@H](C(=O)N[C@H]4C[C@@H]4c4ccccc4)[C@H](C(=O)N[C@H]4C[C@@H]4c4ccccc4)C3)cc2)CC1C(=O)NCCCCCC` (stereo partly drawn) [Compound 051, (3S,4S)-1-(4-(3-(hexylcarbamoyl)-4-nonanoylpiperazine-1-carbonyl)benzoyl)-N3,N4-bis((1S,2R)-2-phenylcyclopropyl)pyrrolidine-3,4-dicarboxamide] is lower in EC50: over 1000 nM for the first, 0.1 to 50 nM for the second.

First: CCCCCCCCN1CCN(C(=O)c2ccc(C(=O)N3C[C@@H](C(=O)N[C@H]4C[C@@H]4c4ccccc4)[C@H](C(=O)N[C@H]4C[C@@H]4c4ccccc4)C3)cc2)C[C@H]1C(=O)NCCCCCC [Compound 031]
Second: CCCCCCCCN1CCN(C(=O)c2ccc(C(=O)N3C[C@@H](C(=O)N[C@H]4C[C@@H]4c4ccccc4)[C@H](C(=O)N[C@H]4C[C@@H]4c4ccccc4)C3)cc2)CC1C(=O)NCCCCCC (stereo partly drawn) [Compound 018, (3S,4S)-1-(4-(3-(hexylcarbamoyl)-4-octylpiperazine-1-carbonyl)benzoyl)-N3,N4-bis((1S,2R)-2-phenylcyclopropyl)pyrrolidine-3,4-dicarboxamide formate]
The EC50 of the first is higher: over 1000 nM for the first, 351 to 1000 nM for the second. The second is the more potent here.

`CCCCCCNC(=O)[C@H](CCNC(=O)CCCCCC)NC(=O)c1ccc(C(=O)N2C[C@@H](C(=O)N[C@H]3C[C@@H]3c3ccccc3)[C@H](C(=O)N[C@H]3C[C@@H]3c3ccccc3)C2)cc1` [Compound 021] and `CCCCCCNC(=O)[C@@H](CNC(=O)c1ccc(C(=O)N2C[C@@H](C(=O)N[C@H]3C[C@@H]3c3ccccc3)[C@H](C(=O)N[C@H]3C[C@@H]3c3ccccc3)C2)cc1)NC(=O)CCCCCC` [Compound 070, (3S,4S)-1-(4-(((R)-2-heptanamido-3-(hexylamino)-3-oxopropyl)carbamoyl)benzoyl)-N3,N4-bis((1S,2R)-2-phenylcyclopropyl)pyrrolidine-3,4-dicarboxamide] cannot be ordered by EC50: over 1000 nM for the first, over 1000 nM for the second.

First: CCCCCCNC(=O)C1CN(C(=O)c2ccc(C(=O)N3C[C@@H](C(=O)N[C@H]4C[C@@H]4c4ccccc4)[C@H](C(=O)N[C@H]4C[C@@H]4c4ccccc4)C3)cc2)CCN1C(=O)CCC (stereo partly drawn) [Compound 055, (3S,4S)-1-(4-(4-butyryl-3-(hexylcarbamoyl)piperazine-1-carbonyl)benzoyl)-N3,N4-bis((1S,2R)-2-phenylcyclopropyl)pyrrolidine-3,4-dicarboxamide]
Second: CCCCCCNC(=O)[C@H]1CN(C(=O)c2ccc(C(=O)N3C[C@@H](C(=O)N[C@H]4C[C@@H]4c4ccccc4)[C@H](C(=O)N[C@H]4C[C@@H]4c4ccccc4)C3)cc2)C[C@@H]1C(=O)NCCCCCC [Compound 029]
The EC50 of the first is higher: 351 to 1000 nM for the first, 51 to 350 nM for the second.

In the case of `CCCCCCCNC(=O)[C@@H]1CN(C(=O)c2ccc(C(=O)N3C[C@@H](C(=O)N[C@H]4C[C@@H]4c4ccccc4)[C@H](C(=O)N[C@H]4C[C@@H]4c4ccccc4)C3)cc2)C[C@H]1OCCCCCCC` (relative stereo) [Compound 062, (3S,4S)-1-(4-((3R*,4S*)-3-(heptylcarbamoyl)-4-(heptyloxy)pyrrolidine-1-carbonyl)benzoyl)-N3,N4-bis((1S,2R)-2-phenylcyclopropyl)pyrrolidine-3,4-dicarboxamide], the EC50 is reported as 51 to 350 nM.

Same assay, conditions: HEK-Blue TLR2 reporter cells, agonist mode; average of all runs (Table 4)

First: CCCCCCNC(=O)[C@H](CNC(=O)c1ccc(C(=O)N2C[C@@H](C(=O)N[C@H]3C[C@@H]3c3ccccc3)[C@H](C(=O)N[C@H]3C[C@@H]3c3ccccc3)C2)cc1)NC(=O)NCc1ccc(F)cc1 [Compound 186, (3S,4S)-1-(4-(((S)-2-(3-(4-fluorobenzyl)ureido)-3-(hexylamino)-3-oxopropyl)carbamoyl)benzoyl)-N^3,N^4-bis((1S,2R)-2-phenylcyclopropyl) pyrrolidine-3,4-dicarboxamide]
Second: CCCCCCNC(=O)[C@H](CN[C@H](c1ccc(C(=O)N2C[C@@H](C(=O)N[C@H]3C[C@@H]3c3ccccc3)[C@H](C(=O)N[C@H]3C[C@@H]3c3ccccc3)C2)cc1)C(F)(F)F)NC(=O)CCCCCC (single isomer, unassigned) [Compound 149]
The EC50 of the first is lower: 0.1 to 50 nM for the first, 51 to 350 nM for the second.

`CCCCCCCCCCCCCCNC(=O)[C@H]1CN(Cc2ccc(C(=O)N3C[C@@H](C(=O)N[C@H]4C[C@@H]4c4ccccc4)[C@H](C(=O)N[C@H]4C[C@@H]4c4ccccc4)C3)cc2)CCN1C` [Compound 084, (3S,4S)-1-(4-(((R)-4-methyl-3-(tetradecylcarbamoyl)piperazin-1-yl)methyl)benzoyl)-N3,N4-bis((1S,2R)-2-phenylcyclopropyl) pyrrolidine-3,4-dicarboxamide] and `CCCCCCCCCCCCCCCN[C@@H]1CCN(C(=O)c2ccc(C(=O)N3C[C@@H](C(=O)N[C@H]4C[C@@H]4c4ccccc4)[C@H](C(=O)N[C@H]4C[C@@H]4c4ccccc4)C3)cc2)C1` [Compound 082, (3S,4S)-1-(4-((R)-3-(pentadecylamino)pyrrolidine-1-carbonyl)benzoyl)-N3,N4-bis((1S,2R)-2-phenylcyclopropyl)pyrrolidine-3,4-dicarboxamide] cannot be ordered by EC50: over 1000 nM for the first, over 1000 nM for the second.

`CCCCCCCCCCCCCCNC(=O)[C@@H]1CN(C(=O)c2ccc(C(=O)N3C[C@@H](C(=O)N[C@H]4C[C@@H]4c4ccccc4)[C@H](C(=O)N[C@H]4C[C@@H]4c4ccccc4)C3)cc2)CCN1C(=O)CC(C)(C)C` [Compound 253, (3S,4S)-1-(4-((S)-4-(3,3-dimethylbutanoyl)-3-(tetradecylcarbamoyl)piperazine-1-carbonyl)benzoyl)-N3,N4-bis((1S,2R)-2-phenylcyclopropyl)pyrrolidine-3,4-dicarboxamide] and `CCCCCCCC(=O)N1CCN(S(=O)(=O)c2ccc(C(=O)N3C[C@@H](C(=O)N[C@H]4C[C@@H]4c4ccccc4)[C@H](C(=O)N[C@H]4C[C@@H]4c4ccccc4)C3)cc2)C[C@@H]1C(=O)NCCCCCC` [Compound 161, (3S,4S)-1-(4-(((R)-3-(hexylcarbamoyl)-4-octanoylpiperazin-1-yl)sulfonyl)benzoyl)-N3,N4-bis((1S,2R)-2-phenylcyclopropyl)pyrrolidine-3,4-dicarboxamide] cannot be ordered by EC50: over 1000 nM for the first, over 1000 nM for the second.

Compared with `O=C1CCCCCCCCCCCCNC(=O)[C@H](CNC(=O)c2ccc(C(=O)N3C[C@@H](C(=O)N[C@H]4C[C@@H]4c4ccccc4)[C@H](C(=O)N[C@H]4C[C@@H]4c4ccccc4)C3)cc2)N1` [Compound 225, (3S,4S)-1-(4-((((S)-3,17-dioxo-1,4-diazacycloheptadecan-2-yl)methyl)carbamoyl)benzoyl)-N3,N4-bis((1S,2R)-2-phenylcyclopropyl)pyrrolidine-3,4-dicarboxamide], `CCCNC(=O)[C@@H]1CN(C(=O)c2ccc(C(=O)N3C[C@@H](C(=O)N[C@H]4C[C@@H]4c4ccccc4)[C@H](C(=O)N[C@H]4C[C@@H]4c4ccccc4)C3)cc2)CCN1C(C)=O` [Compound 265, (3S,4S)-1-(4-((S)-4-acetyl-3-(propylcarbamoyl)piperazine-1-carbonyl)benzoyl)-N3,N4-bis((1S,2R)-2-phenylcyclopropyl) pyrrolidine-3,4-dicarboxamide] is higher in EC50: 351 to 1000 nM for the first, over 1000 nM for the second. The first is the more potent here.

`CCCCCCCCCCCCCCC(=O)NC1CCN(S(=O)(=O)c2ccc(C(=O)N3C[C@@H](C(=O)N[C@H]4C[C@@H]4c4ccccc4)[C@H](C(=O)N[C@H]4C[C@@H]4c4ccccc4)C3)cc2)CC1` [Compound 165, (3S,4S)-1-(4-((4-pentadecanamidopiperidin-1-yl)sulfonyl)benzoyl)-N3,N4-bis((1S,2R)-2-phenylcyclopropyl)pyrrolidine-3,4-dicarboxamide] and `CCCCCCCCCCCCCCC(=O)NC1CCN(S(=O)(=O)c2cccc(C(=O)N3C[C@@H](C(=O)N[C@H]4C[C@@H]4c4ccccc4)[C@H](C(=O)N[C@H]4C[C@@H]4c4ccccc4)C3)c2)CC1` [Compound 194, (3S,4S)-1-(3-((4-pentadecanamidopiperidin-1-yl)sulfonyl)benzoyl)-N3,N4-bis((1S,2R)-2-phenylcyclopropyl)pyrrolidine-3,4-dicarboxamide] cannot be ordered by EC50: over 1000 nM for the first, over 1000 nM for the second.

Compared with `O=C(N[C@H]1C[C@@H]1c1ccccc1)[C@@H]1CN(C(=O)C23CCC(C(=O)N4C[C@@H](C(=O)N[C@H]5C[C@@H]5c5ccccc5)[C@H](C(=O)N[C@H]5C[C@@H]5c5ccccc5)C4)(CC2)C3)C[C@H]1C(=O)N[C@H]1C[C@@H]1c1ccccc1` [Compound 081, (3S,3'S,4S,4'S)-1,1′-(bicyclo [2.2.1]heptane-1,4-dicarbonyl) bis (N3,N4-bis((1S,2R)-2-phenylcyclopropyl)pyrrolidine-3,4-dicarboxamide)], `CCCCCCCC(=O)N1CCN(S(=O)(=O)c2cccc(C(=O)N3C[C@@H](C(=O)N[C@H]4C[C@@H]4c4ccccc4)[C@H](C(=O)N[C@H]4C[C@@H]4c4ccccc4)C3)c2)C[C@H]1C(=O)NCCCCCC` [Compound 170, (3S,4S)-1-(3-(((S)-3-(hexylcarbamoyl)-4-octanoylpiperazin-1-yl)sulfonyl)benzoyl)-N3,N4-bis((1S,2R)-2-phenylcyclopropyl)pyrrolidine-3,4-dicarboxamide] is higher in EC50: 351 to 1000 nM for the first, over 1000 nM for the second. The first is the more potent here.

First: CCCCCCCCN1CC(C(=O)NCCCCCC)CN(Cc2ccc(C(=O)N3C[C@@H](C(=O)N[C@H]4C[C@@H]4c4ccccc4)[C@H](C(=O)N[C@H]4C[C@@H]4c4ccccc4)C3)cc2)C1=O (stereo partly drawn) [Compound 178, (3S,4S)-1-(4-((5-(hexylcarbamoyl)-3-octyl-2-oxotetrahydropyrimidin-1 (2H)-yl)methyl)benzoyl)-N3,N4-bis((1S,2R)-2-phenylcyclopropyl)pyrrolidine-3,4-dicarboxamide]
Second: CCCCCCCCCCCCCCCN1C[C@@H](NC(=O)c2ccc(C(=O)N3C[C@@H](C(=O)N[C@H]4C[C@@H]4c4ccccc4)[C@H](C(=O)N[C@H]4C[C@@H]4c4ccccc4)C3)cc2)CCC1=O [Compound 180, (3S,4S)-1-(4-(((S)-6-oxo-1-pentadecylpiperidin-3-yl)carbamoyl)benzoyl)-N3,N4-bis((1S,2R)-2-phenylcyclopropyl)pyrrolidine-3,4-dicarboxamide]
The EC50 of the first is lower: 351 to 1000 nM for the first, over 1000 nM for the second. The first is the more potent here.
